Patent US20220187281A1, “METHODS AND SYSTEMS FOR EVALUATION OF CELL SAMPLES” (priority 2019, published 2022)

Columns and labels:
[1] = test system: colorectal cancer PDX model (mCRC); assay: Cell-Titer Blue viability of colorectal cancer PDX model (FIG. 2E); type: cell-based, human; conditions: oxaliplatin 0.1, 1, 10 μM; 5-FU 1, 10, 100 μM; days 0, 4, 8 in vitro
[2] = test system: CN0458 colon tumor slices; assay: Cell-Titer Blue viability of CN0458 colon PDX tumor slices; type: cell-based, human; conditions: 100 uM
BR0851 TNBC PDX tumor = assay: Cell-Titer Blue viability of BR0851 TNBC PDX tumor slices; type: cell-based, human; conditions: for sensitivity by viability assay readings: 12 days ex vivo compared to 0 div; for response profile of tumor slices: by 13 div, long-term exposure
BR1126 TNBC PDX tumor = assay: Cell-Titer Blue viability of BR1126 TNBC PDX tumor slices; type: cell-based, human
BR0851 TNBC PDX slices = assay: Immunohistochemical analysis of BR0851 TNBC PDX slices; type: cell-based, human; conditions: BR0851 slices at 13 div; for overall cell numbers (immunohistochemical analysis): compared with vehicle
[3] = test system: patient tumor tissue samples from two locations; assay: Viability of samples from two locations of the same patient tumor (Example 6); type: cell-based; conditions: 0, 3, 5, 9, and 12 days in vitro
Procedure: Tumor tissue samples from two locations of the same patient tumor are obtained and cultured as described in Example 1. Each sample is treated with Cisplatin (Cis), Doxorubicin (Dox) or Paclitaxel (Taxol). Viability measurements are obtained at 0, 3, 5, 9, and 12 days in vitro.

BR1126 TNBC PDX = conditions: JAX PDX Resource data; cited from earlier work
BR0851 TNBC PDX = conditions: JAX PDX Resource data; cited from earlier work
[4] = test system: human metastatic colorectal cancer (mCRC) biopsy core; assay: CTB viability of human mCRC biopsy core slices in long-term culture (therapy resistance); type: cell-based; conditions: encorafenib 100 nM, binimetinib 100 nM; 16 days in culture (days 16 and 20)
Procedure: (§1) 5 μl of Cell-Titer Blue (CTB) (Promega) substrate was added to 1 ml of culture medium and incubated at 37° C. for 15 or 24 hr. 100 μl of media was removed from each sample culture and fluorescence was measured (Ex560/Em590) using Enspire® multimode plate reader (Perkin Elmer®). Background fluorescence of the culture medium was subtracted from each sample reading at each day Immediately following the CTB reading, media was changed and drugs were added to fresh media to continue culture. At desired time points, additional viability measurements were made to collect longitudinal data and conditioned media is collected and analyzed. After the final time point, tissues were fixed in formalin and embedded in paraffin or OCT for histological analyses or lysed in RIPA buffer or Trizol and conditioned media is frozen. To account for variability in tissue composition of each slice punch, viability readings of each sample was normalized to the respective CTB reading immediately after slicing (0 days ex vivo: 1 dex CTB reading) and relative fold changes in CTB readings at each time point were analyzed.
(§2) Samples were precision cut into […] thick slices using a Vibratome VT1200S (Leica Microsystems). […]

CNSTG colon tumor slices = assay: Cell-Titer Blue viability of CNSTG colon PDX tumor slices; type: cell-based, human; conditions: 100 uM
[5] = test system: human metastatic colorectal cancer (mCRC) biopsy cores; assay: CTB viability of mCRC biopsy core slices from two patients (immunotherapy response); type: cell-based; conditions: nivolumab 10 μg/mL, encorafenib 100 nM, cetuximab 10 μg/mL; early and late time points
Procedure: as §1, §2

[6] = compared with vehicle or Cisplatin treated tissues

Compound: O=c1[nH]cc(F)c(=O)[nH]1 [5-FU, 5-fluorouracil]
- cell viability response [1]: no reduction in cell viability
- suppression of viability of CN0458 slices compared with CNSTG slices [2]: more effective

Compound: N.N.[Cl][Pt][Cl] [Cisplatin]
- sensitivity by viability assay readings (BR0851 TNBC PDX tumor): insensitive
- response profile of tumor slices (BR0851 TNBC PDX tumor): progressive disease profile
- ex vivo treatment response (BR1126 TNBC PDX tumor): partial response
- sensitivity by viability assay readings (BR1126 TNBC PDX tumor): sensitive
- overall cell numbers (immunohistochemical analysis) (BR0851 TNBC PDX slices): similar
- difference between viability measurements of the two tumor locations [3]: significant difference
- in vivo treatment response (BR1126 TNBC PDX): partial response
- in vivo treatment response (BR0851 TNBC PDX): no response

Compound: COc1cccc2c1C(=O)c1c(O)c3c(c(O)c1C2=O)C[C@@](O)(C(=O)CO)C[C@@H]3O[C@H]1C[C@H](N)[C@H](O)[C@H](C)O1 [Doxorubicin]
- sensitivity by viability assay readings (BR0851 TNBC PDX tumor): sensitive
- response profile of tumor slices (BR0851 TNBC PDX tumor): complete response
- overall cell numbers (immunohistochemical analysis) (BR0851 TNBC PDX slices): overall reduction in cell numbers
- necrotic regions (BR0851 TNBC PDX slices; [6]): increase
- pyknotic and abnormal nuclei (BR0851 TNBC PDX slices; [6]): increase
- difference between viability measurements of the two tumor locations [3]: significant difference

Compound: CC(=O)O[C@H]1C(=O)[C@@]2(C)[C@H]([C@H](OC(=O)c3ccccc3)[C@]3(O)C[C@H](OC(=O)[C@H](O)[C@@H](NC(=O)c4ccccc4)c4ccccc4)C(C)=C1C3(C)C)[C@]1(OC(C)=O)CO[C@@H]1C[C@@H]2O [Paclitaxel]
- sensitivity by viability assay readings (BR1126 TNBC PDX tumor): sensitive
- difference between viability measurements of the two tumor locations [3]: significant difference

Compound: Cn1cnc2c(F)c(Nc3ccc(Br)cc3F)c(C(=O)NOCCO)cc21 [binimetinib]
- therapy resistance in long-term culture (viability) [4]: suppressed

Compound: COC(=O)N[C@@H](C)CNc1nccc(-c2cn(C(C)C)nc2-c2cc(Cl)cc(NS(C)(=O)=O)c2F)n1 [encorafenib]
- therapy resistance in long-term culture (viability) [4]: emergence of encorafenib resistance

Compound: O=C1[O][Pt]2([NH][C@@H]3CCCC[C@H]3[NH]2)[O]C1=O [oxaliplatin]
- cell viability response [1]: dose and time-dependent response
- suppression of viability of CNSTG slices compared with CN0458 slices (CNSTG colon tumor slices): more effective

Compound: nivolumab
- sensitivity of the two mCRC patient samples (viability) [5]: differential sensitivity
